Measured values from paper PMC10108347, “Heterobifunctional Ligase Recruiters Enable pan-Degradation of Inhibitor of Apoptosis Proteins” (Journal of Medicinal Chemistry, 2023).

What was measured:
[1] = target: T1, plasma protein (HSA column) (Homo sapiens, UniProt P02768); test: Plasma protein binding estimated by HPLC on a […] HSA column; type: in vitro ADME; conditions: CHIRALPAK HSA column (50 × 3 mm, 5 μm), estimated by an HPLC-based method, read-out: PPB (plasma protein binding) (converted)
T1 construct: purchased
In short: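 % PPB was estimated from log retention time on an HSA column (50 × 3 mm, 5 μm, 30 °C), calibrated against log K of literature-PPB reference drugs. Samples were eluted with 50 mM ammonium acetate pH 7.4 and an iPrOH gradient to 30%, with UV detection at 254 nm.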

[2] = target: VHL30 (Homo sapiens, UniProt P40337); test: Immunoblotting (western blot) quantification of VHL30 levels in MM.1S cells
Experimental: (§1) To evaluate the capability of our panel of hetero-PROTACs for E3 ligase degradation, VHL19, VHL30, CRBN, cIAP1, cIAP2, and XIAP levels were quantified by western blot analyses. […] SDS-PAGE was performed, and proteins were then transferred onto PVDF membranes. Blotted membranes were blocked with 5% milk in Tris-buffered saline/Tween20 (TBST). Primary antibodies were diluted in 5% BSA in TBST, and incubations were performed overnight at 4 °C. Secondary HRP-conjugated antibodies diluted in 5% milk were incubated for 1 h at room temperature. Detection of proteins on PVDF was carried out using the WesternBright ECL HRP substrate or the WesternBright Sirius HRP substrate (Advansta, San Jose, USA) and imaged with LAS 4000× (Fujifilm). Membranes were subjected to 10 min incubation with Restore Western Blot Stripping Buffer (Thermo Fisher Scientific, Waltham, USA), followed by TBST washes. After brief re-activation with methanol, the membranes were blocked, and further probing of proteins was carried out.
(§2) Quantification of blots was performed using ImageJ software (National Institutes of Health).

[3] = target: VHL19 (Homo sapiens, UniProt P40337); test: Immunoblotting (western blot) quantification of VHL19 levels in MM.1S cells; conditions: 16 h, 1 μM
Sequence of VHL19 (P40337 54-213): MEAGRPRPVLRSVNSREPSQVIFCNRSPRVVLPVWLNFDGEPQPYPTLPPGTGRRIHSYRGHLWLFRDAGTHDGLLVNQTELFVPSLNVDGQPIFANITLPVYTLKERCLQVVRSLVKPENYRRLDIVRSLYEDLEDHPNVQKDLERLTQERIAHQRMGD
Experimental: as §1, §2

Sequence of VHL30 (P40337 whole entry): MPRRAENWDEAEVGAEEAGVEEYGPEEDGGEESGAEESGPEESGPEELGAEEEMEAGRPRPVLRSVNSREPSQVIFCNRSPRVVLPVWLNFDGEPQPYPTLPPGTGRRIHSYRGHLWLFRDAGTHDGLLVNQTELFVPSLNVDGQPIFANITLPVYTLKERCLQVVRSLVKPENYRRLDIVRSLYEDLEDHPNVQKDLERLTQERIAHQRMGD
T1 sequence (P02768 25-609): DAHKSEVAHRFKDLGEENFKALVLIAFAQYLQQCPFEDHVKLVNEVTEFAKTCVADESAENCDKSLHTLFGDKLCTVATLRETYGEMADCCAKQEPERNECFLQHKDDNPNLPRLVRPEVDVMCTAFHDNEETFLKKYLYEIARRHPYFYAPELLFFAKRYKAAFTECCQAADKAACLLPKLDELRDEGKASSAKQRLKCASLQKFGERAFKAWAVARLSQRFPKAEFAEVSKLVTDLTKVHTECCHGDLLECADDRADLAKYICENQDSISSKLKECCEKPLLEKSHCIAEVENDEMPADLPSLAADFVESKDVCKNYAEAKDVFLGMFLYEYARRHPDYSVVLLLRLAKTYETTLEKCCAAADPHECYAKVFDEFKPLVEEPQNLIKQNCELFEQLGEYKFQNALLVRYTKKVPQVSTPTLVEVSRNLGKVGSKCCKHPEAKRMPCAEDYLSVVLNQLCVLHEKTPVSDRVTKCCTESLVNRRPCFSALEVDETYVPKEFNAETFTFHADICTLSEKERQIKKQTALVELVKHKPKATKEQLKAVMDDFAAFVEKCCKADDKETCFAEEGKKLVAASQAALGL

Row | SMILES | fraction unbound at 0.5 mg/mL [1] | remaining activity at 0.1 µM ([2]; MM1.S, 16 h, read-out: %remaining protein VHL30, MM.1S cells, 16 h treatment at 0.1 μM, normalized to loading control and DMSO) | VHL30 degradation (in words) ([2]; MM.1S cells, western blot) | remaining VHL19 [3]
1 | CN[C@@H](C)C(=O)N[C@@H](C(=O)N1CCC[C@H]1C(=O)N[C@@H]1c2ccccc2C[C@@H]1OCC#CC#CCO[C@H]1Cc2ccccc2[C@H]1NC(=O)[C@@H]1CCCN1C(=O)[C@H](NC(=O)[C@H](C)NC)C1CCCCC1)C1CCCCC1 [AZD5582, reference compound] | 0.06 |  |  | 
2 | CN[C@@H](C)C(=O)N[C@H](C(=O)N1C[C@@H](Oc2cccc(OCCCCC(=O)N[C@H](C(=O)N3C[C@H](O)C[C@H]3C(=O)N[C@@H](C)c3ccc(-c4scnc4C)cc3)C(C)(C)C)c2)C[C@H]1C(=O)N[C@@H]1CCCc2ccccc21)C1CCCCC1 [PROTAC 9, (2S,4S)-1-((S)-2-Cyclohexyl-2-((S)-2-(methylamino)propanamido)acetyl)-4-(3-((5-(((S)-1-((2S,4R)-4-hydroxy-2-(((S)-1-(4-(4-methylthiazol-5-yl)phenyl)ethyl)carbamoyl)pyrrolidin-1-yl)-3,3-dimethyl-1-oxobutan-2-yl)amino)-5-oxopentyl)oxy)phenoxy)-N-((R)-1,2,3,4-tetrahydronaphthalen-1-yl)pyrrolidine-2-carboxamide] |  | 9% | most pronounced after 6 h of treatment | 24%
